Earlier results, collected in patent US20210393580A1, “PROCYANIDINS FOR THE TREATMENT OF ENDOTHELIAL DYSFUNCTION TRIGGERED BY COVID-19” (priority 2020, published 2021).

Columns and labels:
[1] = test system: iNOS (inducible nitric oxide synthase)
[2] = test system: SARS proteases, spike protein and nonstructural proteins (NSP-9, 15); details: Autodock vina; hydrogen bonds with active site residues, low binding energy
[3] = test system: wild-type severe acute respiratory syndrome coronavirus (wtSARS-CoV); details: compounds fractionated from CC; for IC50: read-out: IC50, anti-wtSARS-CoV activity

| Structure (SMILES) | interaction with the SARS viral proteins [2] | other results |
| --- | --- | --- |
| O=C1CCC(Cc2ccc(O)c(O)c2)O1 (stereo not drawn) [M1, δ-(3,4-dihydroxy-phenyl)-γ-valerolactone] | – | excessive nitrite production [1]: reducing; iNOS expression [1]: reducing iNOS (inducible nitric oxide synthase) expression |
| CCc1oc(=O)c(Cc2c(O)c(CC=C(C)C)c(O)c(C(C)=O)c2O)c(O)c1C [arzanol] | significant interaction | – |
| COc1cc(/C=C/C(=O)O)ccc1O [ferulic acid] | significant interaction | – |
| O=c1c(-c2ccc(O)cc2)coc2cc(O)cc(O)c12 [genistein] | significant interaction | – |
| Oc1cc(O)c2c(c1)O[C@@]1(c3ccc(O)c(O)c3)Oc3cc(O)c4c(c3[C@@H]2[C@H]1O)O[C@H](c1ccc(O)c(O)c1)[C@H](O)C4 [procyanidin A2] | – | SI, anti-wtSARS-CoV activity [3]: 37.35; IC50 [3]: 29.9 ± 3.3 µM |
| Oc1cc(O)c2c(c1)O[C@H](c1ccc(O)c(O)c1)[C@H](O)[C@H]2c1c(O)cc(O)c2c1O[C@H](c1ccc(O)c(O)c1)[C@@H](O)C2 [procyanidin B1] | – | SI, anti-wtSARS-CoV activity [3]: 15.69; IC50 [3]: 41.3 ± 3.4 µM |
| Oc1ccc(C=Cc2cc(O)cc(O)c2)cc1 [resveratrol] | significant interaction | – |
| CC(C)c1cc2c(c(O)c1O)[C@@]13CCCC(C)(C)[C@@H]1[C@H](OC3=O)[C@H]2O [rosmanol] | significant interaction | – |
| Cc1cc(O)c(C(C)C)cc1O [thymohydroquinone] | significant interaction | – |
